Data: ChEMBL document CHEMBL1201862, “PubChem BioAssay data set” (2004)
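Where inhibition never reached the appropriate level, the endpoint shown equals the highest concentration tested. Otherwise, values were interpolated linearly from a five-concentration, 48-hour dose response in 96-well plates. GI50 = concentration required for 50% inhibition of growth.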 Active and inactive are the calls of the source. Cut-off read from the data, not from the text of the source: active = GI50 up to about 1.1 µM and inactive = higher.

Columns and labels:
Assay in all cases: growth of human tumour cells (NCI), 48 h
T47D = system: T47D
ACHN = system: ACHN
SR = system: SR
OVCAR-3 = system: OVCAR-3
Malme-3M = system: Malme-3M
SK-MEL-5 = system: SK-MEL-5
SK-MEL-2 = system: SK-MEL-2
CAKI-1 = system: CAKI-1
NCI-H522 = system: NCI-H522
SF-295 = system: SF-295
OVCAR-8 = system: OVCAR-8
DU-145 = system: DU-145
HL-60 = system: HL-60
HOP-62 = system: HOP-62
IGROV-1 = system: IGROV-1
MOLT-4 = system: MOLT-4
HT-29 = system: HT-29
COLO 205 = system: COLO 205
OVCAR-4 = system: OVCAR-4
CCRF-CEM = system: CCRF-CEM

Row | Structure (SMILES) | GI50 (T47D) | GI50 (ACHN) | GI50 (SR) | GI50 (OVCAR-3) | GI50 (Malme-3M) | GI50 (SK-MEL-5) | GI50 (SK-MEL-2) | GI50 (CAKI-1) | GI50 (NCI-H522) | GI50 (SF-295) | GI50 (OVCAR-8) | GI50 (DU-145) | GI50 (HL-60) | GI50 (HOP-62) | GI50 (IGROV-1) | GI50 (MOLT-4) | GI50 (HT-29) | GI50 (COLO 205) | GI50 (OVCAR-4) | GI50 (CCRF-CEM)
1 | Sc1nc2c(c(-c3nc(S)nc4c3CCCCCCCCCC4)n1)CCCCCCCCCC2 | > 100 µM (inactive) | > 100 µM (inactive) | > 100 µM (inactive) | > 100 µM (inactive) | > 100 µM (inactive) | > 100 µM (inactive) | > 100 µM (inactive) | > 100 µM (inactive) | > 100 µM (inactive) | > 100 µM (inactive) | > 100 µM (inactive) | > 100 µM (inactive) | > 100 µM (inactive) | > 100 µM (inactive) | > 100 µM (inactive) | > 100 µM (inactive) | > 100 µM (inactive) | > 100 µM (inactive) | > 100 µM (inactive) | –
2 | COC(=O)[C@@H]1C[C@]2(Br)c3ccccc3N(S(=O)(=O)c3ccccc3)[C@@H]2N1C(=O)OC | > 100 µM (inactive) | > 100 µM (inactive) | > 100 µM (inactive) | > 100 µM (inactive) | > 100 µM (inactive) | > 100 µM (inactive) | 74.5 µM (inactive) | 59.8 µM (inactive) | > 100 µM (inactive) | – | > 100 µM (inactive) | 43.7 µM (inactive) | > 100 µM (inactive) | > 100 µM (inactive) | > 100 µM (inactive) | > 100 µM (inactive) | > 100 µM (inactive) | – | 73.8 µM (inactive) | > 100 µM (inactive)
3 | C/C(=N\NC(=O)c1ccncc1)c1ccccc1Cl | > 100 µM (inactive) | > 100 µM (inactive) | > 100 µM (inactive) | > 100 µM (inactive) | > 100 µM (inactive) | > 100 µM (inactive) | > 100 µM (inactive) | > 100 µM (inactive) | > 100 µM (inactive) | > 100 µM (inactive) | > 100 µM (inactive) | > 100 µM (inactive) | > 100 µM (inactive) | > 100 µM (inactive) | > 100 µM (inactive) | > 100 µM (inactive) | > 100 µM (inactive) | > 100 µM (inactive) | > 100 µM (inactive) | > 100 µM (inactive)
4 | COc1ccc2c(c1)CCCN1CCc3ccccc3C21 (configuration not stated) | 77.3 µM (inactive) | 47.3 µM (inactive) | 20 µM (inactive) | 30.2 µM (inactive) | 37.2 µM (inactive) | 33.8 µM (inactive) | 40.5 µM (inactive) | 74.5 µM (inactive) | 52.1 µM (inactive) | 24.7 µM (inactive) | 39.9 µM (inactive) | > 100 µM (inactive) | 17.1 µM (inactive) | 37.9 µM (inactive) | 50 µM (inactive) | 80.4 µM (inactive) | 33.3 µM (inactive) | 22.4 µM (inactive) | > 100 µM (inactive) | 26.1 µM (inactive)
5 | Nn1c(=S)[nH]nc(/C=C/c2c(O)ccc3ccccc23)c1=O | 3.97 µM (inactive) | 4.93 µM (inactive) | 4.67 µM (inactive) | 3.13 µM (inactive) | 12.2 µM (inactive) | 10.2 µM (inactive) | 13.3 µM (inactive) | 5.55 µM (inactive) | 3.32 µM (inactive) | 8.85 µM (inactive) | 1.78 µM (inactive) | 12.1 µM (inactive) | 0.203 µM (active) | 11.6 µM (inactive) | 1.64 µM (inactive) | 4.29 µM (inactive) | 4.03 µM (inactive) | 7.18 µM (inactive) | 4.06 µM (inactive) | 1.92 µM (inactive)
6 | CC(C)(C)c1ccc(C(C)(C)C)c(N2C(=O)[C@@H]3[C@@H]4C=C[C@@H](C4)[C@]3(C)C2=O)c1 | 18.4 µM (inactive) | 21.5 µM (inactive) | 5.2 µM (inactive) | 13.9 µM (inactive) | 21.9 µM (inactive) | 30.8 µM (inactive) | 20.6 µM (inactive) | 22.2 µM (inactive) | 16.1 µM (inactive) | 27.7 µM (inactive) | 14.6 µM (inactive) | 20.2 µM (inactive) | 16.4 µM (inactive) | 44 µM (inactive) | 18.6 µM (inactive) | 14.9 µM (inactive) | 29.2 µM (inactive) | 42.2 µM (inactive) | 13.6 µM (inactive) | 7.38 µM (inactive)
7 | COc1cc(C)cc(C(=O)OCc2ccccc2)c1C1=C(Cl)C(=O)C(Cl)=CC1=O | 6.44 µM (inactive) | > 10 µM (inactive) | 4.13 µM (inactive) | 4.6 µM (inactive) | > 10 µM (inactive) | > 10 µM (inactive) | > 10 µM (inactive) | > 10 µM (inactive) | 2.05 µM (inactive) | > 10 µM (inactive) | > 10 µM (inactive) | > 10 µM (inactive) | 1.86 µM (inactive) | > 10 µM (inactive) | > 10 µM (inactive) | 2.42 µM (inactive) | > 10 µM (inactive) | > 6.14 µM (inactive) | > 5.13 µM (inactive) | 2.08 µM (inactive)
8 | O=C1CC2(CCN(CC3COc4ccccc4O3)CC2)C(=O)N1N1CCCCCC1 (configuration not stated) | 33.7 µM (inactive) | 73.5 µM (inactive) | > 100 µM (inactive) | > 100 µM (inactive) | 94.4 µM (inactive) | 22.7 µM (inactive) | > 100 µM (inactive) | > 100 µM (inactive) | 78.5 µM (inactive) | 71.1 µM (inactive) | 64.6 µM (inactive) | 32.7 µM (inactive) | 17.6 µM (inactive) | > 100 µM (inactive) | > 100 µM (inactive) | 20.7 µM (inactive) | 21.4 µM (inactive) | 35.9 µM (inactive) | 33.6 µM (inactive) | 29.4 µM (inactive)
9 | COc1cc2c(NCCCCCCO[N+](=O)[O-])ncnc2c(OC)c1OC | 23.8 µM (inactive) | 32.9 µM (inactive) | 9.75 µM (inactive) | 23.1 µM (inactive) | 13.1 µM (inactive) | 11.9 µM (inactive) | 21.6 µM (inactive) | 19.1 µM (inactive) | 19.7 µM (inactive) | 21.1 µM (inactive) | 23.9 µM (inactive) | 24.5 µM (inactive) | 23.9 µM (inactive) | 26.6 µM (inactive) | 23.1 µM (inactive) | 16.5 µM (inactive) | 36.1 µM (inactive) | 21.4 µM (inactive) | 50.4 µM (inactive) | 19.8 µM (inactive)
10 | NC1=Nc2cc(C(F)(F)F)ccc2Sc2nc3ccccc3n21 | 26.6 µM (inactive) | > 78.9 µM (inactive) | 3.61 µM (inactive) | 33.1 µM (inactive) | > 86.1 µM (inactive) | 6.73 µM (inactive) | 55.8 µM (inactive) | 84.9 µM (inactive) | 10.4 µM (inactive) | > 57.9 µM (inactive) | 12.5 µM (inactive) | > 94.6 µM (inactive) | 3.15 µM (inactive) | > 60 µM (inactive) | > 25.7 µM (inactive) | 4.24 µM (inactive) | 12.6 µM (inactive) | > 21.2 µM (inactive) | 17.7 µM (inactive) | 2.64 µM (inactive)
11 | Cc1ccccc1C(=O)N/N=C/c1ccc(Sc2nccn2C)c([N+](=O)[O-])c1 | 45.3 µM (inactive) | > 100 µM (inactive) | 40 µM (inactive) | > 100 µM (inactive) | 69.3 µM (inactive) | 36.4 µM (inactive) | 68.7 µM (inactive) | 78.9 µM (inactive) | 61.9 µM (inactive) | 58.5 µM (inactive) | 72.1 µM (inactive) | 88.3 µM (inactive) | 44.3 µM (inactive) | 80.2 µM (inactive) | 35.6 µM (inactive) | 54.6 µM (inactive) | 41.3 µM (inactive) | 56 µM (inactive) | 56.2 µM (inactive) | 36.5 µM (inactive)
12 | CC1CC[C@@]2(OC1)OC1C[C@H]3[C@@H]4CC[C@H]5CC(OC6OC(CO)C(OC7OC(CO)C(O)C(O)C7O)C(O)C6O)CCC5(C)[C@H]4CCC3(C)C1[C@@H]2C (some centres not stated) | 9.31 µM (inactive) | 7.53 µM (inactive) | 9.59 µM (inactive) | 6.1 µM (inactive) | 8.13 µM (inactive) | 8.69 µM (inactive) | 7.85 µM (inactive) | 8.49 µM (inactive) | 6.19 µM (inactive) | 8.55 µM (inactive) | 8.45 µM (inactive) | 8.3 µM (inactive) | 8.87 µM (inactive) | 6.03 µM (inactive) | 2.52 µM (inactive) | 9.14 µM (inactive) | 7.35 µM (inactive) | 6.89 µM (inactive) | 8.81 µM (inactive) | 9.16 µM (inactive)
13 | O=C1c2ccccc2C2CNC1(O)c1ccccc12 (configuration not stated) | > 100 µM (inactive) | > 100 µM (inactive) | > 100 µM (inactive) | > 100 µM (inactive) | > 100 µM (inactive) | > 100 µM (inactive) | > 100 µM (inactive) | > 100 µM (inactive) | > 100 µM (inactive) | > 100 µM (inactive) | > 100 µM (inactive) | > 100 µM (inactive) | > 100 µM (inactive) | > 100 µM (inactive) | > 100 µM (inactive) | > 100 µM (inactive) | > 100 µM (inactive) | > 100 µM (inactive) | > 100 µM (inactive) | > 100 µM (inactive)
14 | Cn1cc(S(=O)(=O)NC(=O)Nc2ccc(Cl)cc2)c2ccccc21 | 28.6 µM (inactive) | 25.4 µM (inactive) | > 100 µM (inactive) | > 100 µM (inactive) | > 100 µM (inactive) | 73.5 µM (inactive) | 54.7 µM (inactive) | 15.5 µM (inactive) | 24.5 µM (inactive) | 43.6 µM (inactive) | 82.2 µM (inactive) | 49.2 µM (inactive) | > 100 µM (inactive) | 15.1 µM (inactive) | 13.3 µM (inactive) | > 100 µM (inactive) | > 100 µM (inactive) | 30.3 µM (inactive) | > 100 µM (inactive) | > 100 µM (inactive)
